Data taken from the METLIN SMRT retention time set (Domingo-Almenara et al. 2019).

test: gradient 5% acetonitrile 3 min, to 50% in 2 min, to 85% in 15 min, held 3 min, 100 µL/min; details: column: Zorbax Extend-C18 2.1 x 50 mm; eluents: water / acetonitrile, 0.1% formic acid
In short: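 The mobile phases were water and acetonitrile, each with 0.1% formic acid, pumped at 100 μL/min through a Zorbax Extend-C18 column (2.1 × 50 mm, 1.8 μm). Pure standards were injected as mixtures of ~100 molecules and detected by a quadrupole time-of-flight mass spectrometer in positive and negative ionization mode. Retention time came from computationally picked adduct peaks, each inspected by hand.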

Row | SMILES | RP-LC retention time [s]
1 | COc1ccc(-c2noc(CC3CCN(C(=O)C4(c5ccc(OC)cc5)CC4)CC3)n2)cc1 | 1030
2 | CCOc1ccccc1CNC(=O)CN1CCN(Cc2ccccc2)C1=O | 848
3 | CCNC(=O)N1CCCC(c2cccc(C(=O)NC3CCCC3)c2)C1 (centres undefined) | 764
4 | O=C(NCCc1ccccc1)N1[C@H]2CC[C@@H]1c1cncnc1C2 | 642
5 | O=C1CN(C(=O)COc2ccccc2)C(c2ccccc2)c2cc(F)ccc2N1 (centres undefined) | 826
6 | CCOCCCNC(=O)c1cn(CC)nc1S(=O)(=O)N1CCN(c2cccc(Cl)c2)CC1 | 1030
7 | O=S(=O)(c1cccnc1)N1CCC(c2ccccc2)C1 (centres undefined) | 773
8 | Cc1cc(-c2nnc(-c3ccco3)o2)c(C)n1CC(=O)Nc1ccc(F)c(Cl)c1 | 941
9 | O=C(CCc1nc2cccnc2n1Cc1cccs1)NCCc1c[nH]c2ccccc12 | 752
10 | COc1ccc(NC(=O)Cn2c(=O)c3cc(C)nn3c3ncccc32)cc1Cl | 724
11 | CN1C(=O)c2ccccc2Oc2ccc(C(=O)NCCCc3ccccc3)cc21 | 964
12 | CCc1cc(=O)n(CC(=O)Nc2ccc(C)cc2Cl)c(N2CCOCC2)n1 | 942
13 | COc1ccc(Cl)cc1N1CC(c2nc(-c3ccc(C)cc3)no2)CC1=O (centres undefined) | 1050
14 | CC(C)NC(=O)c1c2c(nc3ccccc13)CCC2 | 593
15 | NC(=O)Cn1c(Cc2ccccc2Cl)nc2ccccc21 | 591
16 | CCc1nc2c(c(=O)n1CC(=O)NCCC1=CCCCC1)CN(Cc1ccccc1)CC2 | 696
17 | CCNc1cc(C)nc(N2CCN(C(=O)CC(C)C)CC2)n1 | 613
18 | Cc1cc(NC(C)C)n2nc(-c3ccc(Cl)cc3)c(C)c2n1 | 761
19 | O=C(CNC(=O)C1CCCCC1)Nc1nc2ccccc2[nH]1 | 619
20 | CC1CCN(C(=O)c2csc(-c3ccc(N4CCCC4)nc3)n2)CC1 | 660
21 | CC1(C(=O)NCc2ccc(F)cc2)CCCN(S(=O)(=O)c2ccc(F)cc2F)C1 (centres undefined) | 963

Row | SMILES | RP-LC retention time [s]
22 | O=C(CN1C(=O)C(C(=O)N2CCCC2)Sc2ccccc21)NCCc1ccccc1 (centres undefined) | 898
23 | CSc1nnc(-c2nn(C)c3c2CN(C(=O)c2cccc(N(C)C)c2)CC3)n1C | 669
24 | CCn1cc(CC(=O)NCc2ccc(N3CCOCC3)cc2)c2cccnc21 | 632
25 | CCn1cc(C(=O)Nc2ccc(C)c(C)c2)c2cccnc21 | 937
26 | C=CCc1ccc(OCC(O)CN2C(C)CCCC2C)c(OC)c1 (centres undefined) | 603
27 | COc1ccccc1NC(=O)N1CCc2nc(-c3ccccc3)ncc2C1 | 922
28 | O=C1/C(=C/c2cccnc2)Oc2cc(OCc3ccc([N+](=O)[O-])cc3)ccc21 | 838
29 | COc1cccc(-c2ccc(=O)n(Cc3nc(-c4ccc(Cl)cc4)no3)n2)c1 | 1110
30 | O=C(NCc1ccccc1Cl)c1nc(Cn2c(=O)oc3ccccc32)no1 | 946
31 | O=C(c1cccs1)N1CCC2(CC1)NC(=O)N(Cc1ccccc1)C2=O | 741
32 | Cc1nc2ccn(Cc3ccco3)c(=O)c2cc1C(=O)N1CCN(C)CC1 | 644
33 | O=C(Cc1ccc(F)cc1)Nc1ccc2cn[nH]c2c1 | 688
34 | Cc1ccc(NC(=O)N2CCC(N3CCN(Cc4ccccn4)C(=O)C3=O)CC2)cc1Cl | 658
35 | CCOc1ccc(CC(=O)NC(C)C(=O)Nc2nc3ccccc3[nH]2)cc1OCC (centres undefined) | 668
36 | Cc1ccc(NC(=O)N2CCC(n3c(-c4ccco4)nc4cccnc43)C2)cc1F (centres undefined) | 815
37 | COCCN1C(=O)CCc2cc(NS(=O)(=O)c3ccc(F)cc3)ccc21 | 759
38 | CCc1noc(-c2ccc(-n3ncc(C(=O)NC4CCCCC4)c3C)nc2)n1 | 1020
39 | Cc1ccccc1CNC(=O)c1cc2n(n1)CCCC2 | 811
40 | COc1ccc(CCNC(=O)CSc2nccn2Cc2ccco2)cc1OC | 574
41 | COc1ccc(-c2nc(-c3cn(Cc4ccc(C)cc4)nn3)no2)cc1OC | 961
42 | O=C(c1ccc2c(c1)OCO2)N1CCCC1c1nc(-c2cccc(C(F)(F)F)c2)no1 (centres undefined) | 1080

The next lines start with the values.

Row | RP-LC retention time [s] | SMILES
43 | 945 | Cc1cc(-c2nnc(-c3ccc(F)cc3)o2)c(C)n1CC(=O)NCc1ccc(F)cc1
44 | 699 | Cc1ccnc(NS(=O)(=O)c2ccc(NC(=O)c3ccc([N+](=O)[O-])s3)cc2)n1
45 | 888 | CCc1ccc(C(C)NC(=O)c2cccc(C3CCCN(C(=O)NC)C3)c2)cc1 (centres undefined)
46 | 918 | CCCS(=O)(=O)NCc1ccc2c(c1)CCN2C(=O)c1ccc(Cl)cc1
47 | 578 | O=C(Cc1cccnc1)N1CCC[C@H]1c1nc(-c2ccccc2)n[nH]1
48 | 684 | CCCN(CC1CCOC1)C(=O)Nc1cccc(F)c1 (centres undefined)
49 | 743 | CCc1nnc(-c2cccn2CC(=O)NCc2ccc3c(c2)OCO3)o1
50 | 814 | C=CCOc1ccc(S(C)(=O)=O)cc1
51 | 1210 | COc1cccc(-n2c(=O)c(C(=O)NC3CCCC3)c(O)c3cccnc32)c1
52 | 1040 | Clc1ccccc1-c1nc(-c2cccc(-c3ccn[nH]3)c2)no1
53 | 753 | COc1cccc(CCC(=O)N2C[C@@H]3C[C@H]2C[C@@H]3NC(=O)c2cccs2)c1
54 | 924 | Cc1ccc(-c2c(C)noc2C)cc1S(=O)(=O)NCc1ccccc1
55 | 562 | Cc1cnc(C2CC2)n1CCNC(=O)C1CC=CC1
56 | 1130 | CCOc1ccc(-c2cc3c(=O)n(Cc4nc(-c5ccccc5C)no4)ncn3n2)cc1
57 | 990 | COc1cc(-c2noc(C3CC(=O)N(c4ccc(C)c(C)c4)C3)n2)cc(OC)c1OC (centres undefined)
58 | 797 | COCCC(=O)N1CCC(Oc2nccnc2N2CCc3ccccc32)C1 (centres undefined)
59 | 625 | O=C(Cc1cccn1-c1ccc(Cl)cc1)NCCCN1CCOCC1
60 | 726 | CCc1ccccc1NC(=O)C1CCN(S(=O)(=O)c2c(C)[nH]c(C)c2C(=O)N2CCCC2)CC1
61 | 971 | CSc1cccc(NC(=O)N2CCc3c(c(C(=O)N4CCCC4)nn3C)C2)c1
62 | 936 | Cc1ccc(NC(=O)c2cnc3c(c2)c(=O)n(C)c(=O)n3-c2ccc(F)cc2)cc1
63 | 1110 | COc1ccccc1-c1noc(Cn2ncn3nc(-c4ccc(Br)cc4)cc3c2=O)n1
64 | 728 | CCOC(=O)N1CCC(c2nnc(-c3ccco3)s2)CC1
65 | 694 | O=C(c1ccoc1)N1CCC(c2noc(C3CC3)n2)C1 (centres undefined)
66 | 803 | COc1ccc2nc(NC(=O)C3CCN(C(=O)c4ccc(-c5noc(C)n5)cc4)CC3)sc2c1

Row | RP-LC retention time [s] | SMILES
67 | 885 | O=C(Cn1cccc(-c2nc(-c3ccccc3)no2)c1=O)Nc1ccccc1Cl
68 | 975 | Cc1cc(C)n(-c2ccnc(NCCC3=CCCCC3)n2)n1
69 | 789 | O=C(c1cc(Sc2cccc(Cl)c2)nc2ccccc12)N1CCN(c2ccccn2)CC1
70 | 1200 | CC1=NS(=O)(=O)N(Cc2ccccc2)C=C1C(=O)OCc1cc(C)ccc1C
71 | 609 | O=C(NCCCN1CCCC1)C1CCN(Cc2cc3ccccc3n2Cc2ccccc2Cl)CC1
72 | 1420 | COC(=O)c1cc2c(=O)n(-c3nc4cc(C)c(C)cc4s3)ccc2nc1C
73 | 711 | Cc1cc(Br)ccc1NC(=O)Cn1cnc2c(nc3n2CCCCC3)c1=O
74 | 685 | COc1ccc(-c2cc(N3CCC(NC(=O)c4ccc(C#N)cc4)C3)n[nH]2)cc1 (centres undefined)
75 | 712 | Cc1ccc(C(=O)Nc2ccc3c(c2)CCC(=O)N3C)s1
76 | 782 | Cc1nc(N2CCCC2)c2c(C(=O)NCCc3ccc(Cl)cc3)c(C)oc2n1
77 | 814 | Cc1cc(N(C)C)nc(N2CCN(S(=O)(=O)c3ccc(-c4ccccc4)cc3)CC2)n1
78 | 994 | COc1ccc(C)cc1NC(=O)C1CCN(S(C)(=O)=O)c2ccccc2O1 (centres undefined)
79 | 668 | Cc1cc(C)n(-c2ccc(=O)n(CC(=O)NCc3ccc4c(c3)OCO4)n2)n1
80 | 800 | Cc1ccc(NC(=O)Cn2c(=O)n(-c3ccc(F)cc3)c(=O)c3c2cc(C)n3C)cc1
81 | 881 | COc1ccccc1OCC(=O)Nc1ccc2c(c1)N(C(=O)c1ccco1)CCC2
82 | 814 | Cc1ccc(NC(=O)C2CCN(S(=O)(=O)c3ccc4c(c3)CCCC(=O)N4)CC2)cc1C
83 | 1030 | Cc1ccc(-n2ccc(=O)c(-c3nc(-c4ccc(Cl)cc4)no3)n2)cc1
84 | 680 | Cc1ccc(CC(=O)NC2CCN(c3nnc4cccc(C)n34)CC2)cc1
85 | 574 | O=C(NCCCN1CCCC1)c1ccc(-c2ccc(N3CCSCC3)nc2)cc1
86 | 766 | Cc1ccc(Cl)cc1NC(=O)CSc1ccc(N2CCOCC2)nn1
87 | 1290 | CCOc1ccccc1NC(=O)Cc1c(C)nn(-c2nc(-c3ccc(F)cc3)cs2)c1C
88 | 866 | CCOC(=O)c1c(C)[nH]c(C(=O)N2CCC(CC(=O)NCc3ccc(OC(C)C)cc3)CC2)c1C
89 | 1040 | COc1ccc(-c2nc(Cc3noc(-c4cccc(F)c4)n3)c(C)o2)cc1
